Experimental data from US12240844B2 (Voronoi, Inc., priority 2019, dated 2025).
pIC50: −log10 of the molar value.

What was measured:
human GST-CLK1 (129-end) = target: T1, human GST-CLK1 (129-end) (Homo sapiens, UniProt P49759); assay: GST-CLK1 enzyme inhibition, ADP-Glo kinase assay; type: biochemical; details: ATP 10 uM
T1 construct: purified human GST-CLK1 (129-end, Signalchem) enzyme; GST; purchased Signalchem
How it was run: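 GST-CLK1 (129-end, 3 ng) reacted with 10 uM ATP and substrate in 40 mM Tris-HCl pH 7.4, 20 mM MgCl2, 0.5 mg/mL BSA, 50 uM DTT, 1 h at 25° C. ADP-Glo luminescence normalised to solvent control; IC50 from triplicate data.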

TTK = target: T2, TTK (Homo sapiens, UniProt P33981); assay: TTK enzyme inhibition, ADP-Glo kinase assay; type: biochemical; parameters: purchased Signalchem T20-10G; details: ATP 5 μM
T2 sequence (P33981 1-857): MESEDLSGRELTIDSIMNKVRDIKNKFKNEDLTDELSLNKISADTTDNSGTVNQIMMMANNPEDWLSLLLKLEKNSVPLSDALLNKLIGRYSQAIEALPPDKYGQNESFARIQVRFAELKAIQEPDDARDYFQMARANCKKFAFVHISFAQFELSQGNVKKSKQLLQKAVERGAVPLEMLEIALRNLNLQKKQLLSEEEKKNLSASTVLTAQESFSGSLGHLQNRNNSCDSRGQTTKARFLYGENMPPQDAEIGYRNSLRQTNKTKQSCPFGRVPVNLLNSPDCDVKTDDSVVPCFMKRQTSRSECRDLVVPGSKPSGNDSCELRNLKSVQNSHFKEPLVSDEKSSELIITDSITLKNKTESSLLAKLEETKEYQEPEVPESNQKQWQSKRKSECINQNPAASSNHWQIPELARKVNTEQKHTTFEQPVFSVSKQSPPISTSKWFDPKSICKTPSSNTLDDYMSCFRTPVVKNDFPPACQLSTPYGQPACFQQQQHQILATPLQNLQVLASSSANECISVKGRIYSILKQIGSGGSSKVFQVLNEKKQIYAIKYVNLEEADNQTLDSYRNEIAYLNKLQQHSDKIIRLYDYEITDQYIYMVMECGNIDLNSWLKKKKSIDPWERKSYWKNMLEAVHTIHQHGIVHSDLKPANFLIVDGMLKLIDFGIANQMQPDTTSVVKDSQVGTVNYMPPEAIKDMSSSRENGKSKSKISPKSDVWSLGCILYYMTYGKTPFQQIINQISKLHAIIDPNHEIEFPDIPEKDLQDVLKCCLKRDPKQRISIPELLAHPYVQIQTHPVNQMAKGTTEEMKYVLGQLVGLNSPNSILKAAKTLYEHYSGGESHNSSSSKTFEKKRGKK
Procedure: In order to evaluate the inhibitory activity of the compounds according to the present invention on LRRK2, LRRK2 (G2019S), DYRK1, CLK1 and TTK kinases, the following experiment was performed.
Example compounds were reacted with the purified human TTK (Signalchem #T20-10G) enzyme to evaluate the enzyme inhibitory ability as follows. The reaction buffer was used as the composition of 40 mM Tris-HCl pH7.4, 20 mM MgCl2, 0.1 mg/ml BSA (5× kinase buffer, Signalchem #K03-09) and 50 μM DTT (Signalchem #D86-09B), and the reaction of all test materials was performed on the reaction buffer. The compound was diluted with 10 mM DMSO stock in […] by a serial dilution method, and the enzyme activity was measured at the final compound concentrations of 1, 0.333333, 0.111111, 0.037037, 0.012346, 0.004115, 0.001372, 0.000457, 0.000152, 0.000051 and 0.000017 μM. In the test, the human TTK (7.5 ng) enzyme was reacted with the purified ATP (5 μM, Promega #V6930) and an MBP enzyme substrate (0.2 μg, Signalchem M42-51N) at 25° C. for 4 hours, and then the enzyme activity was identified using the in vitro ADP-Glo™ kinase assay (Promega #V6930). The enzyme activity reaction liquid, an ADP-Glo reaction liquid and an enzyme potency detection solution were reacted in a ratio of 2:2:1, and the degree of inhibition of enzyme activity was measured by luminescence. The degree of inhibition of enzyme activity according to the treatment concentrations of the respective compounds was calculated based on the luminescence degree of the enzyme activity of a solvent control group that was not treated with the compound, where the concentration of each compound to inhibit enzyme activity inhibition by 50% was determined as an IC50 (nM) value and obtained using Prism (Version 8.2, GraphPad) software.
In the table below, the following designations were used for the evaluation of enzyme inhibitory ability.

human DYRK1A and Tau = assay: Tau phosphorylation inhibition, ClariCELL Kinase Cell-Based Assay (Carnabio)
How it was run: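 HEK293 cells transiently expressing human DYRK1A and Tau were exposed to compound, then lysed. Released Tau was captured on plate and its phosphorylation quantified by ELISA with a phospho-Tau-specific antibody.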

T1 sequence (P49759 129-484 limits assumed): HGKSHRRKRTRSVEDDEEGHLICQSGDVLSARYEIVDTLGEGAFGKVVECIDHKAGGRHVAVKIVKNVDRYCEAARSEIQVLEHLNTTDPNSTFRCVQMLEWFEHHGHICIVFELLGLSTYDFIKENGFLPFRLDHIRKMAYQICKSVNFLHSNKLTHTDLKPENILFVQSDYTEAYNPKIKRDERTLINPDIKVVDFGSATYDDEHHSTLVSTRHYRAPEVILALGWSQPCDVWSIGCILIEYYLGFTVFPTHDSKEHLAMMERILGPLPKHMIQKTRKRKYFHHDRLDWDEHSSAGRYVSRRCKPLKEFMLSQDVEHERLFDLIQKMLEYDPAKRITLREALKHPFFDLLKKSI

| Structure (SMILES) | pIC50 (human GST-CLK1 (129-end)) | pIC50 (TTK) | inhibition at 0.25 µM (human DYRK1A and Tau; 0.25 uM) | inhibition at 0.5 µM (human DYRK1A and Tau; 0.5 uM) | inhibition at 1 µM (human DYRK1A and Tau; 1 uM) |
| --- | --- | --- | --- | --- | --- |
| COc1cc(S(=O)(=O)N2CCOCC2)ccc1Nc1cc(C2CC2)c2c(C#N)c[nH]c2n1 [Example 227, 4-cyclopropyl-6-((2-methoxy-4-(morpholinosulfonyl)phenyl)amino)-1H-pyrrolo[2,3-b]pyridine-3-carbonitrile] | 6.00 to 6.52 | > 7.00 |  |  |  |
| N#Cc1c[nH]c2nc(Nc3ccc(C(=O)N4CCC(N5CCOCC5)CC4)c4c3OCCO4)cc(C3CC3)c12 [Example 226, 4-cyclopropyl-6-((8-(4-morpholinopiperidine-1-carbonyl)-2,3-dihydrobenzo[b] [1,4]dioxin-5-yl)amino)-1H-pyrrolo[2,3-b]pyridine-3-carbonitrile] | > 7.00 | > 7.00 |  |  |  |
| COc1cc(S(=O)(=O)N2CCC(N3CCOCC3)CC2)ccc1Nc1cc(C2CC2)c2c(C#N)c[nH]c2n1 [Example 228, 4-cyclopropyl-6-((2-methoxy-4-((4-morpholinopiperidin-1-yl)sulfonyl)phenyl)amino)-1H-pyrrolo[2,3-b]pyridine-3-carbonitrile] | 6.00 to 6.52 | > 7.00 |  |  |  |
| O=C(c1ccc(Nc2cc(C3CC3)c3c(C(F)(F)F)c[nH]c3n2)c2c1CCO2)N1CC[C@@H](N2CCOCC2)C1 [Example 238, (R)-(7-((4-cyclopropyl-3-(trifluoromethyl)-1H-pyrrolo[2,3-b]pyridin-6-yl)amino)-2,3-dihydrobenzofuran-4-yl)(3-morpholinopyrrolidin-1-yl)methanone] |  | > 7.00 | 9.8% | 26.4% | 48.3% |
| CCNc1cc(Nc2ccc(C(=O)N3C[C@@H]4C[C@H]3CO4)c3c2OCCO3)nc2[nH]cc(C(F)(F)F)c12 [Example 44, ((1S,4S)-2-oxa-5-azabicyclo[2.2.1]heptan-5-yl)(8-((4-(ethylamino)-3-(trifluoromethyl)-1H-pyrrolo[2,3-b]pyridin-6-yl)amino)-2,3-dihydrobenzo[b] [1,4]dioxin-5-yl)methanone] | > 7.00 | > 7.00 |  |  |  |
| COCCNc1cc(Nc2ccc(P3(=O)CCN(C4CC4)CC3)cc2OC)nc2[nH]cc(C(F)(F)F)c12 [Example 207, 1-cyclopropyl-4-(3-methoxy-4-((4-((2-methoxyethyl)amino)-3-(trifluoromethyl)-1H-pyrrolo[2,3-b]pyridin-6-yl)amino)phenyl)-1,4-azaphosphinane 4-oxide] | 6.52 to 7.00 | > 7.00 |  |  |  |
| COc1cc(S(=O)(=O)N2CCOCC2)ccc1Nc1cc(C2CC2)c2c(C(F)(F)F)c[nH]c2n1 [Example 222, 4-cyclopropyl-N-(2-methoxy-4-(morpholinosulfonyl)phenyl)-3-(trifluoromethyl)-1H-pyrrolo[2,3-b]pyridin-6-amine] | 6.00 to 6.52 | > 7.00 |  |  |  |
| CNc1cc(Nc2ccc(P3(=O)CCN(C4CC4)CC3)cc2OC)nc2[nH]cc(C(F)(F)F)c12 [Example 205, 1-cyclopropyl-4-(3-methoxy-4-((4-(methylamino)-3-(trifluoromethyl)-1H-pyrrolo[2,3-b]pyridin-6-yl)amino)phenyl)-1,4-azaphosphinane 4-oxide] | > 7.00 | > 7.00 |  |  |  |
| CNc1cc(Nc2ccc(P3(=O)CCN(C4CC4)CC3)cc2OC)nc2[nH]cc(C#N)c12 [Example 146, 6-((4-(1-cyclopropyl-4-oxido-1,4-azaphosphinan-4-yl)-2-methoxyphenyl)amino)-4-(methylamino)-1H-pyrrolo[2,3-b]pyridine-3-carbonitrile] | 6.00 to 6.52 | > 7.00 |  |  |  |
| O=C(c1ccc(Nc2cc(C3CC3)c3c(C(F)(F)F)c[nH]c3n2)c2c1OCCO2)N1CCOCC1 [Example 220, (8-((4-cyclopropyl-3-(trifluoromethyl)-1H-pyrrolo[2,3-b]pyridin-6-yl)amino)-2,3-dihydrobenzo[b] [1,4]dioxin-5-yl)(morpholino) methanone] | 6.00 to 6.52 | > 7.00 |  |  |  |
| CCNc1cc(Nc2cc(F)c(S(=O)(=O)N3CCC(N4CCOCC4)CC3)cc2OC)nc2[nH]cc(C(F)(F)F)c12 [Example 266, N^4-ethyl-N^6-(5-fluoro-2-methoxy-4-((4-morpholinopiperidin-1-yl)sulfonyl)phenyl)-3-(trifluoromethyl)-1H-pyrrolo[2,3-b]pyridine-4,6-diamine] | 6.00 to 6.52 | 6.00 to 6.52 |  |  |  |
| N#Cc1c[nH]c2nc(Nc3ccc(C(=O)N4CCOCC4)c4c3OCCO4)cc(C3CC3)c12 [Example 225, 4-cyclopropyl-6-((8-(morpholine-4-carbonyl)-2,3-dihydrobenzo[b] [1,4]dioxin-5-yl)amino)-1H-pyrrolo[2,3-b]pyridine-3-carbonitrile] | 6.00 to 6.52 | > 7.00 |  |  |  |
| CNc1cc(Nc2ccc(C(=O)N3CCC(N4C[C@@H]5C[C@H]4CO5)CC3)c3c2OCC3)nc2[nH]cc(C(F)(F)F)c12 [Example 241, (4-((1S,4S)-2-oxa-5-azabicyclo[2.2.1]heptan-5-yl)piperidin-1-yl)(7-((4-(methylamino)-3-(trifluoromethyl)-1H-pyrrolo[2,3-b]pyridin-6-yl)amino)-2,3-dihydrobenzofuran-4-yl)methanone] | > 7.00 | > 7.00 |  |  |  |
| CCNc1cc(Nc2ccc(P3(=O)CCN(C(C)=O)CC3)cc2OC)nc2[nH]cc(C(F)(F)F)c12 [Example 42, 1-(4-(4-((4-(ethylamino)-3-(trifluoromethyl)-1H-pyrrolo[2,3-b]pyridin-6-yl)amino)-3-methoxyphenyl)-4-oxido-1,4-azaphosphinan-1-yl)ethan-1-one] | 6.52 to 7.00 | > 7.00 |  |  |  |
| COCCNc1cc(Nc2ccc(P3(=O)CCN(C4CC4)CC3)cc2OC)nc2[nH]cc(C#N)c12 [Example 148, 6-((4-(1-cyclopropyl-4-oxido-1,4-azaphosphinan-4-yl)-2-methoxyphenyl)amino)-4-((2-methoxyethyl)amino)-1H-pyrrolo[2,3-b]pyridine-3-carbonitrile] | 6.00 to 6.52 | > 7.00 |  |  |  |
| COCCNc1cc(Nc2ccc(C(=O)N3CCC(N4CCOCC4)CC3)c3c2OCC3)nc2[nH]cc(C(F)(F)F)c12 [Example 55, (7-((4-((2-methoxyethyl)amino)-3-(trifluoromethyl)-1H-pyrrolo[2,3-b]pyridin-6-yl)amino)-2,3-dihydrobenzofuran-4-yl)(4-morpholinopiperidin-1-yl)methanone] | > 7.00 | 6.52 to 7.00 |  |  |  |
| O=C(c1ccc(Nc2cc(C3CC3)c3c(C(F)(F)F)c[nH]c3n2)c2c1OCO2)N1CCC(N2CCOCC2)CC1 [Example 49, (7-((4-cyclopropyl-3-(trifluoromethyl)-1H-pyrrolo[2,3-b]pyridin-6-yl)amino)benzo[d][1,3]dioxol-4-yl)(4-morpholinopiperidin-1-yl)methanone] | > 7.00 | > 7.00 |  |  |  |
| COc1cc(P2(=O)CCN(C(C)=O)CC2)ccc1Nc1cc(C2CC2)c2c(C(F)(F)F)c[nH]c2n1 [Example 48, 1-(4-(4-((4-cyclopropyl-3-(trifluoromethyl)-1H-pyrrolo[2,3-b]pyridin-6-yl)amino)-3-methoxyphenyl)-4-oxido-1,4-azaphosphinan-1-yl)ethan-1-one] | 6.00 to 6.52 | 6.00 to 6.52 |  |  |  |
